Measurements: US20110117209A1 (priority 2008, published 2011)
Where “and” joins values, the source holds several entries; their conditions need not be identical. Equal values may be shown once. Read-outs that look alike come from different tables or passages of the source.

Columns and labels:
Staphylococcus aureus = assay type: cell-based
[1] = assay type: physicochemical

Molecule	activity along EN 13727 (Active/Inefficient) (Staphylococcus aureus)	activity along EN 13727, log reduction (Staphylococcus aureus)	hydrogen peroxide concentration ([1]; T0)	hydrogen peroxide concentration ([1]; T = 15 min)	hydrogen peroxide concentration ([1]; T = 24 h)	hydrogen peroxide concentration ([1]; T = 72 h)
OO [H2O2, hydrogen peroxide]	Active	>5 log	–	–	–	–
O=S(=O)([O-])[O-].[Cu+2] [CuSO4, copper sulfate]	Inefficient	–	–	–	–	–
sodium alkylsulfate [Sodium alkyl (dodecyl) sulfate]	–	–	7.6%	7.6%	7.6%	7.4% and 7.6%
sodium alkylethersulfate	–	–	7.6%	7.6%	7.3% and 7.6%	6.9% and 7.6%
